Data: US11649255B2, “Indazoles as hematopoietic progenitor kinase 1 (HPK1) inhibitors and methods using same” (1st Biotherapeutics, Inc., priority 2020, dated 2023)

target: recombinant human HPK1 (Homo sapiens (Human), UniProt Q92918); test: HPK1 kinase assay (ADP-Glo); type: biochemical; details: 25 μM ATP, MBP substrate
Outline: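 Activity was read as ADP formed, detected by ADP-Glo luminescence after the reaction of 5 ng recombinant human HPK1 with MBP and ATP (stocks 0.5 μg/μl and 25 μM) for 40 min at 30 °C. Buffer was Tris pH 7.5 with MgCl2, BSA and DTT, with compound in 0.5% DMSO. IC50 came from inhibition curves.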

Chain of recombinant human HPK1 (Q92918 whole entry): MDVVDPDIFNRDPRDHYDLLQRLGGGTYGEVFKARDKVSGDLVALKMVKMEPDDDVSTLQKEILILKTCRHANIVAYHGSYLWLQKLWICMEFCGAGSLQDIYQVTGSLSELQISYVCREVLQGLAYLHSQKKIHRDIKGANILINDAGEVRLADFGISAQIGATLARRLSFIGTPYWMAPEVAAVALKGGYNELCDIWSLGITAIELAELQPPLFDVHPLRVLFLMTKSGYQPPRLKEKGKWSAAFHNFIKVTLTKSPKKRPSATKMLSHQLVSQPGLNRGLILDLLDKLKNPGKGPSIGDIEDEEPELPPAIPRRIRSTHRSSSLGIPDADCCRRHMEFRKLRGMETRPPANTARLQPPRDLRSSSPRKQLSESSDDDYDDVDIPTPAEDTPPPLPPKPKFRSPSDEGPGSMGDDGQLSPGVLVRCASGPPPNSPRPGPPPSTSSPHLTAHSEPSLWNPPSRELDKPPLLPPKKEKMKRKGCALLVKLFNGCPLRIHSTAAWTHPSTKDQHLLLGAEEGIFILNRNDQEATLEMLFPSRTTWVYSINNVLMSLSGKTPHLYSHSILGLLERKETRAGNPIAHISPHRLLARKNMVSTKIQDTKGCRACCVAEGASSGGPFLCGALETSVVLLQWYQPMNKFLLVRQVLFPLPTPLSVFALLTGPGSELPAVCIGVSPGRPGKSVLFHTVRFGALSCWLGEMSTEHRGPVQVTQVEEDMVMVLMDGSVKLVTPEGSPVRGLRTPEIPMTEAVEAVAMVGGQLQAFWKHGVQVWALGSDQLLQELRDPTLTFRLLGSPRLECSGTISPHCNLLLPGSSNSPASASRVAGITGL

SMILES | IC50 [nM]
C[S+]([O-])c1c(F)c(Cl)c(-c2ccn3nc(NC(=O)[C@@H]4C[C@@H]4F)cc3c2)c2cn[nH]c12 (stereo partly drawn) [Example 538, (1S,2S)-N-(5-(5-chloro-6-fluoro-7-(methylsulfinyl)-1H-indazol-4-yl)pyrazolo[1,5-a]pyridin-2-yl)-2-fluorocyclopropane-1-carboxamide] | < 100
Cc1c(F)c(OCCN(C)C(N)=O)c2[nH]ncc2c1-c1ccn2nc(NC(=O)[C@@H]3C[C@@H]3F)cc2c1 [Example 539, (1S,2S)-2-fluoro-N-(5-(6-fluoro-5-methyl-7-(2-(1-methylureido)ethoxy)-1H-indazol-4-yl)pyrazolo[1,5-a]pyridin-2-yl)cyclopropane-1-carboxamide] | < 100
CN(Nc1c(F)c(Cl)c(-c2ccn3nc(NC(=O)[C@@H]4C[C@@H]4F)cc3c2)c2cn[nH]c12)C(=O)OC(C)(C)C [Example 542, tert-butyl 2-(5-chloro-6-fluoro-4-(2-((1S,2S)-2-fluorocyclopropane-1-carboxamido)pyrazolo[1,5-a]pyridin-5-yl)-1H-indazol-7-yl)-1-methylhydrazine-1-carboxylate] | < 100
Cc1c(F)c(OCCNC(N)=O)c2[nH]ncc2c1-c1ccn2nc(NC(=O)[C@@H]3C[C@@H]3F)cc2c1 [Example 544, (1S,2S)-2-fluoro-N-(5-(6-fluoro-5-methyl-7-(2-ureidoethoxy)-1H-indazol-4-yl)pyrazolo[1,5-a]pyridin-2-yl)cyclopropane-1-carboxamide] | < 100
CNC(=O)NCCOc1c(F)c(C)c(-c2ccn3nc(NC(=O)[C@@H]4C[C@@H]4F)cc3c2)c2cn[nH]c12 [Example 545, (1S,2S)-2-fluoro-N-(5-(6-fluoro-5-methyl-7-(2-(3-methylureido)ethoxy)-1H-indazol-4-yl)pyrazolo[1,5-a]pyridin-2-yl)cyclopropane-1-carboxamide] | < 100
CNC(=O)OCCSc1c(F)c(C)c(-c2ccn3nc(NC(=O)[C@@H]4C[C@@H]4F)cc3c2)c2cn[nH]c12 [Example 546, 2-((6-fluoro-4-(2-((1S,2S)-2-fluorocyclopropane-1-carboxamido)pyrazolo[1,5-a]pyridin-5-yl)-5-methyl-1H-indazol-7-yl)thio)ethyl methylcarbamate] | < 100
Cc1c(F)c(OCCNC(=O)C(F)(F)F)c2[nH]ncc2c1-c1ccn2nc(NC(=O)[C@@H]3C[C@@H]3F)cc2c1 [Example 547, (1S,2S)-2-fluoro-N-(5-(6-fluoro-5-methyl-7-(2-(2,2,2-trifluoroacetamido)ethoxy)-1H-indazol-4-yl)pyrazolo[1,5-a]pyridin-2-yl)cyclopropane-1-carboxamide] | < 100
CNNc1c(F)c(Cl)c(-c2ccn3nc(NC(=O)[C@@H]4C[C@@H]4F)cc3c2)c2cn[nH]c12 [Example 553, (1S,2S)-N-(5-(5-chloro-6-fluoro-7-(2-methylhydrazineyl)-1H-indazol-4-yl)pyrazolo[1,5-a]pyridin-2-yl)-2-fluorocyclopropane-1-carboxamide] | < 100
CN(c1c(F)c(Cl)c(-c2ccn3nc(NC(=O)[C@@H]4C[C@@H]4F)cc3c2)c2cn[nH]c12)C1CCC(O)C1 (stereo partly drawn) [Example 555, (1S,2S)-N-(5-(5-chloro-6-fluoro-7-((3-hydroxycyclopentyl)(methyl)amino)-1H-indazol-4-yl)pyrazolo[1,5-a]pyridin-2-yl)-2-fluorocyclopropane-1-carboxamide] | < 100
O=C(Nc1cc2cc(-c3c(Cl)c(F)c(NC4CCC(O)C4)c4[nH]ncc34)ccn2n1)[C@@H]1C[C@@H]1F (stereo partly drawn) [Example 559, (1S,2S)-N-(5-(5-chloro-6-fluoro-7-((3-hydroxycyclopentyl)amino)-1H-indazol-4-yl)pyrazolo[1,5-a]pyridin-2-yl)-2-fluorocyclopropane-1-carboxamide] | < 100
CSc1c(F)cc2[nH]ncc2c1-c1ccn2nc(NC(=O)[C@H]3C[C@@H]3F)cc2c1 [Example 571, (1R,2S)-2-fluoro-N-(5-(6-fluoro-5-(methylthio)-1H-indazol-4-yl)pyrazolo[1,5-a]pyridin-2-yl)cyclopropane-1-carboxamide] | < 100
CSc1c(F)cc2[nH]ncc2c1-c1ccn2nc(NC(=O)[C@@H]3C[C@H]3F)cc2c1 [Example 572, (1S,2R)-2-fluoro-N-(5-(6-fluoro-5-(methylthio)-1H-indazol-4-yl)pyrazolo[1,5-a]pyridin-2-yl)cyclopropane-1-carboxamide] | < 100
CSc1c(F)cc2[nH]ncc2c1-c1ccn2nc(NC(=O)[C@H]3C[C@H]3F)cc2c1 [Example 573, (1R,2R)-2-fluoro-N-(5-(6-fluoro-5-(methylthio)-1H-indazol-4-yl)pyrazolo[1,5-a]pyridin-2-yl)cyclopropane-1-carboxamide] | < 100

Continued, values first:

IC50 [nM] | SMILES
< 100 | COC(=O)c1c(F)c(C)c(-c2ccn3nc(NC(=O)[C@@H]4C[C@@H]4F)cc3c2)c2cn[nH]c12 [Example 548, methyl 6-fluoro-4-(2-((1S,2S)-2-fluorocyclopropane-1-carboxamido)pyrazolo[1,5-a]pyridin-5-yl)-5-methyl-1H-indazole-7-carboxylate]
> 1000 | Cc1c(F)c(C(=O)O)c2[nH]ncc2c1-c1ccn2nc(NC(=O)[C@@H]3C[C@@H]3F)cc2c1 [Example 549, 6-fluoro-4-(2-((1S,2S)-2-fluorocyclopropane-1-carboxamido)pyrazolo[1,5-a]pyridin-5-yl)-5-methyl-1H-indazole-7-carboxylic acid]
> 1000 | O=C(O)c1c(F)c(Cl)c(-c2ccn3nc(NC(=O)[C@@H]4C[C@@H]4F)cc3c2)c2cn[nH]c12 [Example 551, 5-chloro-6-fluoro-4-(2-((1S,2S)-2-fluorocyclopropane-1-carboxamido)pyrazolo[1,5-a]pyridin-5-yl)-1H-indazole-7-carboxylic acid]
< 100 | COC(=O)c1c(F)c(Cl)c(-c2ccn3nc(NC(=O)[C@@H]4C[C@@H]4F)cc3c2)c2cn[nH]c12 [Example 554, methyl 5-chloro-6-fluoro-4-(2-((1S,2S)-2-fluorocyclopropane-1-carboxamido)pyrazolo[1,5-a]pyridin-5-yl)-1H-indazole-7-carboxylate]
< 100 | CNC(=O)c1c(F)c(Cl)c(-c2ccn3nc(NC(=O)[C@@H]4C[C@@H]4F)cc3c2)c2cn[nH]c12 [Example 560, 5-chloro-6-fluoro-4-(2-((1S,2S)-2-fluorocyclopropane-1-carboxamido)pyrazolo[1,5-a]pyridin-5-yl)-N-methyl-1H-indazole-7-carboxamide]
101 to 500 | CC(=O)c1c(F)c(C)c(-c2ccn3nc(NC(=O)[C@@H]4C[C@@H]4F)cc3c2)c2cn[nH]c12 [Example 566, (1S,2S)-N-(5-(7-acetyl-6-fluoro-5-methyl-1H-indazol-4-yl)pyrazolo[1,5-a]pyridin-2-yl)-2-fluorocyclopropane-1-carboxamide]
< 100 | CC(=O)c1c(F)c(Cl)c(-c2ccn3nc(NC(=O)[C@@H]4C[C@@H]4F)cc3c2)c2cn[nH]c12 [Example 575, (1S,2S)-N-(5-(7-acetyl-5-chloro-6-fluoro-1H-indazol-4-yl)pyrazolo[1,5-a]pyridin-2-yl)-2-fluorocyclopropane-1-carboxamide]
> 1000 | NC(=O)c1c(F)c(Cl)c(-c2ccn3nc(NC(=O)[C@@H]4C[C@@H]4F)cc3c2)c2cn[nH]c12 [Example 576, 5-chloro-6-fluoro-4-(2-((1S,2S)-2-fluorocyclopropane-1-carboxamido)pyrazolo[1,5-a]pyridin-5-yl)-1H-indazole-7-carboxamide]
